Measurements as given in patent publication US11643413B2, “9-(2-oxacycloalkyl)-9H-purine-2,6-diamine derivatives and their use for the treatment of skin disorders” (UNIVERZITA PALACKEHO V OLOMOUCI, priority 2017, dated 2023).

Assays:
[1] = Radical scavenging activity determined by ORAC; conditions: relative to trolox; Mean ± SD (n = 3)
Procedure: The ability of compounds to scavenge free radicals in vitro was determined by Oxygen Radical Absorbance Capacity (ORAC) method. In brief, fluorescein (100 μl, […]) and 25 μl of compound solution were added into each working well in a 96-well microplate preincubated at 37° C. Thereafter, 25 μL of 250 mM AAPH was quickly added, microplate was shaken for 5 s and the fluorescence (Ex. 485 nm, Em. 510 nm) was read every 3 min over 90 min by using microplate reader Infinite 200 (TECAN, Switzerland). The net area under the curve was used to express antioxidant activity relative to trolox which was used as a standard.

[2] = system: NIH3T3 fibroblasts; test: Peroxidation of membrane lipids, MDA by TBA method; type: cell-based, mouse; conditions: FW = fresh weight
Procedure: A typical symptom associated with aging is the direct consequence of increased concentrations of reactive oxygen species and lipid peroxidation. […] MDA levels were measured using thiobarbituric acid (TBA method). […] The crude extract was centrifuged at 10,000×g for 5 minutes and 100 μl aliquots of the supernatant were mixed with 100 μl of 0.5% (w/v) TBA containing 0.1% (w/v) trichloroacetic acid. The resulting solution was then incubated for 30 min at 95° C. The samples were rapidly cooled on ice and centrifuged for 5 minutes at 1000×g. […] The newly prepared derivatives of the general formula thus have a protective function against the negative effects of reactive oxygen species that accumulate strongly in the tissues.

[3] = system: Wistar rats; test: Acute dermal toxicity; type: in vivo
Procedure: The test substance 114 was tested for acute dermal toxicity using Wistar rats. Testing was performed according to ČSN EN ISO 10993-11: Biologické hodnoceni zdravotnických prostředků—část 11: Zkoušky na systémovou toxicitu and according to OECD Test Guideline No. 402 Acute Dermal Toxicity Adopted 24 Feb. 1987. The study was performed as limit test: two groups of animals—5 males and 5 females at the dose of 1000 mg/kg of body weight. The pre-test was performed with 1 male and 1 female from each group. After the pilot experiment, the other animals of the group were dosed. The test substance in delivered form was applied on the shaved skin of the test animals for 24 hours. The test animals were observed 14 days after exposure to the test substance, afterwards they were sacrificed, and the necropsy for macroscopic examination of the organs was performed. […] The test substance toxicity was evaluated on the basis of mortality, body weight changes, and clinical signs of toxicity during the observation period and necropsy findings at the end of the study. According to the results of study, the value of Maximum Tolerated Dose (dermal) of the test substance for rats of both sexes is higher than 1000 mg/kg of body weight.

[4] = system: human epidermal model EpiDerm™; test: In vitro skin irritation test, EpiDerm; type: cell-based
Procedure: Test substance was assayed for the in vitro skin irritation in human epidermal model EpiDerm™. The test was performed according to the Method B.46. In vitro skin irritation: Reconstructed human epidermis model test and Protocol for: In Vitro EpiDerm™ Skin Irritation Test For use with MatTek Corporation's Reconstructed Human Epidermal Model EPI-200-SIT (see par. 1.4, (1), (3)). Two types of extract were prepared by means of polar (water) as well as non-polar extractant (olive oil) according to directions given in ČSN EN ISO 10 993-12 (2012). After pre-incubation of tissues, 30 μl of an extract was placed directly atop to the tissue so it covered all tissue surfaces. Length of exposition was 60 minutes. Three tissues were used for the extract and for each control. The procedure was performed separately for each extract. After removal of extracts of the test substance from tissues, tissues were post incubated for 42 hours due to leave of damage reparation, followed by three hours incubation with MTT and two hours extraction period with shaking. Optical density (OD570) of isopropyl alcohol extracts was measured on a spectrophotometer. Relative cell viability was calculated for each tissue as % of the mean viability of the negative control tissues. Under the above-described experimental design, average viability of tissues treated by test substance water extract was 99.0% and by test substance olive oil extract 103.0%, i.e. viability was >50% in both cases. The effect of the test substance 114 was negative in EpiDerm™ model (tissues were not damaged). According to the classification criteria given in chapter 4.5, the test substance is considered to have no category in regard to skin irritation.

[5] = system: Rabbits (New Zealand Albino breed); conditions: rabbit, in vivo
Procedure: The test substance 114 was tested in Animal skin irritation test. Rabbits (New Zealand Albino breed) were used for the test. The test was performed according to ČSN EN ISO 10993 (Březen 2014): Biologické hodnoceni zdravotnických prostředků—část 10: Zkoušky dráždivosti a senzibilizace kůže, článek 6.3 Zkouška dráždivosti na zviřatech (Biological evaluation of medical devices—Part 10: Tests for irritation and delayed-type hypersensitivity). A dose 0.5 g of the test substance was applied to the skin of the back on each side of each rabbit. […] At first the one rabbit (test animal. No. 16) was used. Two other rabbits (rabbit No. 17 and No. 18) were used in confirmatory test. At the end of the contact time (4 hours) the dressings were removed and animals were examined for signs of erythema and oedema, and the response was evaluated at 1, 24, 48 and 72 hours afterpatches removal.

[6] = Calcein AM cytotoxicity, BJ; conditions: human, BJ foreskin fibroblasts
Text: (§1) One of the parameters used, as the basis for cytotoxicity assays, is the metabolic activity of viable cells. For example, a microtiter assay, which uses the Calcein AM, is now widely used to quantitate cell proliferation and cytotoxicity. […] Because only metabolically active cells cleave Calcein AM, these assays detect viable cells exclusively. The quantity of reduced Calcein AM corresponds to the number of vital cells in the culture.
(§2) Mouse fibroblasts NIH3T3; mouse immortalized bone marrow macrophages B2.4 and B10A.4, and BJ (human foreskin fibroblasts) were used for routine screening of compounds. The cells were maintained in Nunc/Corning 80 cm^2 plastic tissue culture flasks and cultured in cell culture medium (DMEM with 5 g/l glucose, 2 mM glutamine, 100 U/ml penicillin, 100 μg/ml streptomycin, 10% fetal calf serum and sodium bicarbonate).
(§3) The cell suspensions that were prepared and diluted according to the particular cell type and the expected target cell density (2.500-30.000 cells per well based on cell growth characteristics) were added by pipette (80 μl) into 96/well microtiter plates. Inoculates were allowed a pre-incubation period of 24 hours at 37° C. and 5% CO2 for stabilisation. Four-fold dilutions of the intended test concentration were added at time zero in 20 μl aliquots to the microtiter plate wells. Usually, the compound tested was evaluated at six 4-fold dilutions. […] All compound concentrations were examined in duplicates. Incubations of cells with the tested compounds lasted for 72 hours at 37° C., in 5% CO2 atmosphere and 100% humidity. At the end of the incubation period, the cells were assayed by using Calcein AM. Ten microliters of the stock solution were pipetted into each well and incubated for 1 hour. Fluorescence (FD) was measured with the Labsystem FIA Reader Fluoroscan Ascent (UK).

[7] = Calcein AM cytotoxicity, NIH-3T3; conditions: mouse, NIH-3T3 fibroblasts
Text: as §1, §2, §3

[8] = Calcein AM cytotoxicity, B10A.4 (first column); conditions: mouse, B10A.4 immortalized bone marrow macrophages
Text: as §1, §2, §3

[9] = 60 minutes exposition, 42 hours post incubation, MTT, % of negative control

## CN(C)c1nc(NCc2ccco2)c2ncn(C3CCCCO3)c2n1 (stereo not shown) [Compound 114, 2-(Dimethylamino)-6-furfurylamino-9-(tetrahydro-2H-pyran-2-yl)-9H-purine]
[1]
  ORAC (compound/trolox): 0.211 ± 0.018
[2]
  MDA: 8.8 nmol/g FW
[3]; 1000 mg/kg of body weight dermal, 14 days observation
  mortality: did not cause death of animals
[3]; 24 hours on shaved skin, rats of both sexes
  Maximum Tolerated Dose (dermal): higher than 1000 mg/kg of body weight
[4]
  skin irritation classification: no category
[4]; [9]
  average viability of tissues, olive oil extract: 103.0%
  average viability of tissues, water extract: 99.0%
[4]; water and olive oil extracts
  effect in EpiDerm model: negative
[5]; New Zealand Albino, 4 h
  Primary Irritation Index: 0
[5]
  changes in animal weights: No changes in animal weights
  clinical signs of systemic intoxication: No clinical signs of systemic intoxication
  erythema and oedema: No erythema and oedema
  skin irritation: No skin irritation
[6]
  IC50 at 72 h: > 167 µM
[7]
  IC50 at 72 h: > 167 µM
[8]
  IC50 at 72 h: > 167 µM
